The record followed here is patent US10266549B2, “ULK1 inhibitors and methods using same” (SALK INSTITUTE FOR BIOLOGICAL STUDIES, priority 2014, dated 2019).

For test [1], the target named is FAK (Homo sapiens (Human), UniProt Q05397). As to the kind of experiment: classic in vitro kinase assay, dose-response (Reaction Biology). The conditions noted are these: dose-response curves. The class given is biochemical. The protocol:
(§1) Kinase inhibitor specificity profiling assays were first carried out using DiscoveRx KINOMEscan competition binding assay against a panel of 456 kinases (www dot discoverx dot corn) using 1 μM compound 14.
(§2) To use a more well-established measure of the selectivity of compound 14 against its top binding kinases, we examined dose-response curves for its inhibition of these kinases in a classic in vitro kinase assays. Here we tested the ten kinases most suppressed by compound 14 by the ATP binding assay. […] It is important to note that even though compound 14 inhibits these 4 kinase quite equivalently across all of the different assays we have examined, this is still greater selectivity than all but a handful of widely used ATP-competitive kinases inhibitors widely used in clinical oncology today. We next examined the ability of compound 14 to suppress signaling downstream of various kinases in cells in culture. […] Similarly, compound 14 inhibited FAK and AuroraA comparably to ULK1 in MEFs as well.

The target of test [2] is AuroraA kinase (Homo sapiens (Human), UniProt O14965). The test is described as above. Format: biochemical. The note with it: dose-response curves. The protocol:
as §1, §2

The target in test [3] is JAK2 (Homo sapiens (Human), UniProt O60674). The test is described as above. The class given is biochemical. The note with it: dose-response curves. The protocol: as §1, §2
For test [4], the target named is ULK1 (Homo sapiens (Human), UniProt O75385). As to the kind of experiment: ULK1 inhibition assay (Table 1). Format: biochemical. The note with it: * = tested as a mixture of regioisomers.
The subject of test [5] is U87MG glioblastoma cells. Briefly: AnnexinV apoptosis in U87MG cells. The conditions noted are these: selectively in the nutrient-starved state. Format: cell-based. The protocol: For flow cytometry analysis, cells were collected at the appropriate time point, washed once in PBS, trypsinized and pelleted. For Annexin V staining, cells were washed in 1× Annexin V buffer and treated as described by the Annexin V staining protocol (BD Pharmingen, San Diego, Calif.). Briefly, cells were resuspended in Annexin V buffer to a concentration of one million per mL, 100,000 cells were then stained with 5 μL of phycoerythrin (PE)-conjugated Annexin V antibody (BD Pharmingen, San Diego, Calif.) and 5 μL of 7-amino-actinomycin D (7AAD) and then incubated at room temperature for 15 minutes. 400 μL of Annexin V buffer was then added to each sample with gentle mixing. Stained cells were analyzed using a FACScan flow cytometer (Becton Dickinson, San Jose, Calif.). Flow cytometry data was analyzed using FlowJo 8.6 software (Tree Star Inc., Ashland, Oreg.).
There has been great interest in the role of autophagy in the survival of tumor cells, particular tumor cells faced with metabolic stress from chemotherapies or targeted therapeutics. We next examined whether compound 14 would promote apoptosis in tumor cells similar to the MEFs, selectively under conditions in which autophagy is actively engaged. […]

Each structure is given as a SMILES string.

Sequence of FAK (Q05397 whole entry): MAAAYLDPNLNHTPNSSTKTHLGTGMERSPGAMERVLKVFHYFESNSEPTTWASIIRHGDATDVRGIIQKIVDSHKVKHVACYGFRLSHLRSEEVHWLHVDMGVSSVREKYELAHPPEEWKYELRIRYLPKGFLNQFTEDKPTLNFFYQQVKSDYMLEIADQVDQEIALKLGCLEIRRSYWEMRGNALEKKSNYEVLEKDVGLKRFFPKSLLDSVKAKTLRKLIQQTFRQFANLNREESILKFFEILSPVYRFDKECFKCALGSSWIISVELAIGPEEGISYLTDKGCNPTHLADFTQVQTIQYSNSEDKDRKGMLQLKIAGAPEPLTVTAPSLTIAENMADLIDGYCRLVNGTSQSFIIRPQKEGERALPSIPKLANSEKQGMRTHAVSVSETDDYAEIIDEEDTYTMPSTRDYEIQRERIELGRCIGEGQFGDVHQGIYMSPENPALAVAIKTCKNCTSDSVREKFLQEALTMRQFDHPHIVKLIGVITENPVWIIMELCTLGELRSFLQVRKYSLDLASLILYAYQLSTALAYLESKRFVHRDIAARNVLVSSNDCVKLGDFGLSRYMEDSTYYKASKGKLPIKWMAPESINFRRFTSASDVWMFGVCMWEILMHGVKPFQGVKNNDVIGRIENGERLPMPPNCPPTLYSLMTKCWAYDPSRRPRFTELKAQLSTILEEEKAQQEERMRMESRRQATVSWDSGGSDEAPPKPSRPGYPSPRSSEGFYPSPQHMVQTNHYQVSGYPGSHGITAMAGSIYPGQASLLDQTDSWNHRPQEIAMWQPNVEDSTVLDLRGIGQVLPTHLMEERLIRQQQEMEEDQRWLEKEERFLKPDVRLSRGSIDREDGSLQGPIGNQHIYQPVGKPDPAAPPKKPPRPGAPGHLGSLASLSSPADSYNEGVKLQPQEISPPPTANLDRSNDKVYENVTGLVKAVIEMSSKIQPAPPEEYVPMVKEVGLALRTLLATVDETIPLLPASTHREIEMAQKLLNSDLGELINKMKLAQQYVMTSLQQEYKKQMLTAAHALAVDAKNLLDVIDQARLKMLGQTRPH
Sequence of AuroraA kinase (O14965 whole entry): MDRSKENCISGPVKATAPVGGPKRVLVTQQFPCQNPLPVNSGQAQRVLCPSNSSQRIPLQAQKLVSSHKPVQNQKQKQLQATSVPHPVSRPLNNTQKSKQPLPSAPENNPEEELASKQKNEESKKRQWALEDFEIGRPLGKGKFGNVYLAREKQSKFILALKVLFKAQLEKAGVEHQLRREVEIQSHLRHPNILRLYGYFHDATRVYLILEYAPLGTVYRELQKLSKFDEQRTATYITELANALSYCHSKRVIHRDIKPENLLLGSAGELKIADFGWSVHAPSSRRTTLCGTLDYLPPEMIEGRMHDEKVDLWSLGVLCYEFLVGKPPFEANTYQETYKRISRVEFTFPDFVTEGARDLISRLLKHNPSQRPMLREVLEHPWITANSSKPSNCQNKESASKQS
Sequence of JAK2 (O60674 whole entry): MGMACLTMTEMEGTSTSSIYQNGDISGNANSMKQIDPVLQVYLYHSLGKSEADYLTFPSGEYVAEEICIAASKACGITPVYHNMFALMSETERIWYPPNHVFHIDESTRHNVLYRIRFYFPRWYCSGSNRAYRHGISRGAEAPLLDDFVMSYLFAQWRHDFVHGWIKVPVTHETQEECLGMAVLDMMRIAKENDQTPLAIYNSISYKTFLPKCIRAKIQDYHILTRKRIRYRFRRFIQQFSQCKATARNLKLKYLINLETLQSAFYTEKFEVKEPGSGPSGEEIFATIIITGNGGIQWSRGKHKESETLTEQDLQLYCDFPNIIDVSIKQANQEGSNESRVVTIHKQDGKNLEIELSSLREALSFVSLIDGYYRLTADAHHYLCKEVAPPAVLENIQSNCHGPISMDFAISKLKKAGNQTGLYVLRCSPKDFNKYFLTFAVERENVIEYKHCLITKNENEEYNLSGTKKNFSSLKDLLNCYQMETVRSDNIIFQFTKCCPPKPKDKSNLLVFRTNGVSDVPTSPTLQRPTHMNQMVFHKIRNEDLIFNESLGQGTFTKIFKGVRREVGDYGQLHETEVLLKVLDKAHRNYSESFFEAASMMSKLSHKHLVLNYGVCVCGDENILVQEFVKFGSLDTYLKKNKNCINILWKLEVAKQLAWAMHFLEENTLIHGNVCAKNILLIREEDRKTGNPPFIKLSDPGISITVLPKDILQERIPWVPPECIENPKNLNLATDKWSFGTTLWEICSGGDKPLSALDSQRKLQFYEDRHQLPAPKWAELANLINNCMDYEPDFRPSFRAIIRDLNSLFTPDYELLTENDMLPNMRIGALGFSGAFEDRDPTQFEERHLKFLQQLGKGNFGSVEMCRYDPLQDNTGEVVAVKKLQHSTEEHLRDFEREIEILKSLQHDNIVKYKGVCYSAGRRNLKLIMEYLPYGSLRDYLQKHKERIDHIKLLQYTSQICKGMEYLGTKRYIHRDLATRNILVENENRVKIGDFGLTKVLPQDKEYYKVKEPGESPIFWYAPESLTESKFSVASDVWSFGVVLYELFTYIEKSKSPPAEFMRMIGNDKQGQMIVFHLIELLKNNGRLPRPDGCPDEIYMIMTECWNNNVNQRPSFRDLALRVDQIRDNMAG
Sequence of ULK1 (O75385 whole entry, species assumed): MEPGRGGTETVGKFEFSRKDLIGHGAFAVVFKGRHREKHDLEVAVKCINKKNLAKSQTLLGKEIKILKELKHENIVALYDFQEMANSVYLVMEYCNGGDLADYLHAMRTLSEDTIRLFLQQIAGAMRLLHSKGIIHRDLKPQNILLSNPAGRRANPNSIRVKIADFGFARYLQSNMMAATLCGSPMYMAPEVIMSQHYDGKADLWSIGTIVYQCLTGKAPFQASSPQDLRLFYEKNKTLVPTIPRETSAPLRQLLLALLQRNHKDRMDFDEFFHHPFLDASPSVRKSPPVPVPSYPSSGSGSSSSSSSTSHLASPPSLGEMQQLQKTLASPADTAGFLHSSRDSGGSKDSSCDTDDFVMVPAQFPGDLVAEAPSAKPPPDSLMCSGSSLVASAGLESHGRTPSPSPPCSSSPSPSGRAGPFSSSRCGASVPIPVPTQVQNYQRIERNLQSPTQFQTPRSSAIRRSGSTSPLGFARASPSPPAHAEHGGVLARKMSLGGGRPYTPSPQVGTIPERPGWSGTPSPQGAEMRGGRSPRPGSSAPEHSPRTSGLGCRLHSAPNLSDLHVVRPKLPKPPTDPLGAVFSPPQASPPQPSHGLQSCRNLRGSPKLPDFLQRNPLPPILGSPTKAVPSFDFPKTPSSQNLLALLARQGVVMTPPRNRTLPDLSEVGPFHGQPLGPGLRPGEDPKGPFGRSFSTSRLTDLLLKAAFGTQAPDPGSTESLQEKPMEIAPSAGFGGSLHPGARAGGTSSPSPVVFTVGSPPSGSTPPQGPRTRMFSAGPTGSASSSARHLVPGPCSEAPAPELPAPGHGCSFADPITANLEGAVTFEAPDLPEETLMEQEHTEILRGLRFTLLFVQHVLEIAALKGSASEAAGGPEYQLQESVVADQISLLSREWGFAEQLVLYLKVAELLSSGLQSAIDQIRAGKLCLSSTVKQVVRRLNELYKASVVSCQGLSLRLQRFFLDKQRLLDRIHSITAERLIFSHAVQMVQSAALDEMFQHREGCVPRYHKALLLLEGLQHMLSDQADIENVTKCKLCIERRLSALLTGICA

What is called IC50 is the concentration that gives 50% inhibition. Regarding `CNC(=O)c1ccccc1Nc1nc(Nc2cc(OC)c(OC)c(OC)c2)ncc1Br` [compound 14, 2-(5-bromo-2-(3,4,5-trimethoxyphenylamino)pyrimidin-4-ylamino)-N-methylbenzamide], the “inhibition relative to ULK1” value in test [1], in test [2] and in test [3] was “equivalently inhibited” throughout. The 50% inhibitory concentration (IC50) in test [4] was below 200 nM. Also, in test [5], the “apoptosis (AnnexinV+ cells)” value is reported as “promoted apoptosis”.
